{"source": "patent US8802664B2", "about": "(Bioproject, priority 2010, dated 2014)", "data": [{"molecular_target": "T1, human H4 receptor (Homo sapiens, UniProt Q9H3N8)", "T1 construct": "expressed in transfected cells", "T1 sequence (Q9H3N8 whole entry)": "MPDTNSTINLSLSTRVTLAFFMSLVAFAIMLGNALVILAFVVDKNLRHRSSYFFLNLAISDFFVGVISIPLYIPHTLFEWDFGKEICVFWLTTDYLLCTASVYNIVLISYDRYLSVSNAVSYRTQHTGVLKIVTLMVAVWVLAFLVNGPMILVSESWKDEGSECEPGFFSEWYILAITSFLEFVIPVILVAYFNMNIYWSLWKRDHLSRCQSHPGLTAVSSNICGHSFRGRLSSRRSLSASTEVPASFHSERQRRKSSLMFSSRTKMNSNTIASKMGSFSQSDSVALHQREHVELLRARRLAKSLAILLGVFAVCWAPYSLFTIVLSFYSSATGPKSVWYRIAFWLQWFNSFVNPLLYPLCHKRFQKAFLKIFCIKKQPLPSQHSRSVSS", "test": "[3H]Histamine binding on membranes of CHO cells stably expressing human H4 receptor", "how_it_was_run": "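CHO-hH4 membranes 20 μg/well; buffer 50 mM Tris/HCl, 0.5 mM EDTA, pH 7.4; NSB: 10 μM JNJ 7777120 (BP1.2404); GF/B filtration (PEI-presoaked), 3 ice-cold washes; scintillation counting.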", "units": {"Ki or IC50 activity class": "nM"}, "values": [{"smiles": "C=CCOc1cccc(C(OC2CCN(C)CC2)c2nc3ccccc3s2)c1", "note": "(stereo not drawn) [Example 22, 2-[(3-allyloxyphenyl)(1-methylpiperidin-4-yloxy)methyl]benzothiazole]", "Ki or IC50 activity class": "< 30"}, {"smiles": "CN1CCC(OC(c2ccc3c(c2)OC(F)(F)O3)c2nc3ccccc3[nH]2)CC1", "note": "(stereo not drawn) [Example 521]", "Ki or IC50 activity class": "< 1000"}, {"smiles": "CN1CCC(OC(c2ccc(N)cc2)c2nc3ccccc3[nH]2)CC1", "note": "(stereo not drawn) [Example 455, 4-[(1H-benzimidazol-2-yl)(1-methylpiperidin-4-yloxy)methyl]aniline]", "Ki or IC50 activity class": "< 30"}, {"smiles": "Cc1cc(F)c(C(OC2CCN(C)CC2)c2nc3ccccc3s2)c(F)c1", "note": "(stereo not drawn) [Example 531]", "Ki or IC50 activity class": "< 30"}, {"smiles": "CN1CCC(OC(c2cccc(OC3CCC(N)CC3)c2)c2nc3ccccc3s2)CC1", "note": "(stereo not drawn) [Example 477]", "Ki or IC50 activity class": "< 1000"}, {"smiles": "CN1CCC(OC(c2cccc(SCc3ccccc3)c2)c2nc3ccccc3[nH]2)CC1", "note": "(stereo not drawn) [Example 150, 2-[(3-benzylsulfanylphenyl)(1-methylpiperidin-4-yloxy)methyl]-1H-benzimidazole]", "Ki or IC50 activity class": "< 300"}, {"smiles": "CN1CCC(OC(c2cccc(-c3cccc(CC#N)c3)c2)c2nc3ccccc3s2)CC1", "note": "(stereo not drawn) [Example 98, {3′-[benzothiazol-2-yl(1-methylpiperidin-4-yloxy)methyl]biphenyl-3-yl}acetonitrile]", "Ki or IC50 activity class": "< 300"}, {"smiles": "CN1CCC(OC(c2cccc(C#CCNC(=N)N)c2)c2nc3ccccc3s2)CC1", "note": "(stereo not drawn) [Example 373, N-(3-{3-[benzothiazol-2-yl(1-methylpiperidin-4-yloxy)methyl]phenyl}prop-2-ynyl)guanidine]", "Ki or IC50 activity class": "< 30"}, {"smiles": "CN1CCC(OC(c2cccc(C#CCCNC(=N)NC(=O)OC(C)(C)C)c2)c2nc3ccccc3[nH]2)CC1", "note": "(stereo not drawn) [Example 307, N-tert-butoxycarbonyl-N′-(4-{3-[(1H-benzimidazol-2-yl)(1-methylpiperidin-4-yloxy)methyl]phenyl}but-3-ynyl)guanidine]", "Ki or IC50 activity class": "< 1000"}, {"smiles": "CN1CCC(OC(c2cccc(SCC(O)CO)c2)c2nc3ccccc3[nH]2)CC1", "note": "(stereo not drawn) [Example 288, 3-{3-[(1H-benzimidazol-2-yl)(1-methylpiperidin-4-yloxy)methyl]phenylsulfanyl}propane-1,2-diol]", "Ki or IC50 activity class": "< 1000"}, {"smiles": "CN1CCC(OC(c2cccc(C#N)c2)c2nc3ccccc3s2)CC1", "note": "(stereo not drawn) [Example 197, 3-[benzothiazol-2-yl(1-methylpiperidin-4-yloxy)methyl]benzonitrile]", "Ki or IC50 activity class": "< 30"}, {"smiles": "CN1CCC(OC(c2cccc(OCc3ccccn3)c2)c2nc3ccccc3s2)CC1", "note": "(stereo not drawn) [Example 283, 2-{(1-methylpiperidin-4-yloxy)[3-(pyridin-2-ylmethoxy)phenyl]methyl}benzothiazole]", "Ki or IC50 activity class": "< 30"}, {"smiles": "Brc1cccc(C(OCC2CNC2)c2nc3ccccc3[nH]2)c1", "note": "(stereo not drawn) [Example 502]", "Ki or IC50 activity class": "< 1000"}, {"smiles": "CC(C)Oc1cccc(C(OC2CCN(C)CC2)c2nc3ccccc3s2)c1", "note": "(stereo not drawn) [Example 55, 2-[(3-isopropoxyphenyl)(1-methylpiperidin-4-yloxy)methyl]benzothiazole]", "Ki or IC50 activity class": "< 30"}, {"smiles": "COC(=O)CSc1cccc(C(OC2CCN(C)CC2)c2nc3ccccc3s2)c1", "note": "(stereo not drawn) [Example 160, {3-[benzothiazol-2-yl(1-methylpiperidin-4-yloxy)methyl]phenylsulfanyl}acetic acid methyl ester]", "Ki or IC50 activity class": "< 30"}, {"smiles": "CN1CCC(OC(c2cccc(SCCCCN)c2)c2nc3ccccc3s2)CC1", "note": "(stereo not drawn) [Example 359, 4-{3-[benzothiazol-2-yl(1-methylpiperidin-4-yloxy)methyl]phenylsulfanyl}butylamine]", "Ki or IC50 activity class": "< 30"}, {"smiles": "CSc1cccc(-c2cccc(C(OC3CCN(C)CC3)c3nc4ccccc4[nH]3)c2)c1", "note": "(stereo not drawn) [Example 116, 2-[(1-methylpiperidin-4-yloxy)(3′-methylsulfanylbiphenyl-3-yl)methyl]-1H-benzimidazole]", "Ki or IC50 activity class": "< 300"}, {"smiles": "COc1ccc(C(OC2CCN(C)CC2)c2nc3ccccc3s2)cc1", "note": "(stereo not drawn) [Example 14, 2-[(4-methoxyphenyl)(1-methylpiperidin-4-yloxy)methyl]benzothiazole]", "Ki or IC50 activity class": "< 1000"}, {"smiles": "CN1CCC(OC(c2cccc(SCCCCCCO)c2)c2nc3ccccc3s2)CC1", "note": "(stereo not drawn) [Example 292, 6-{3-[benzothiazol-2-yl(1-methylpiperidin-4-yloxy)methyl]phenylsulfanyl}hexan-1-ol]", "Ki or IC50 activity class": "< 300"}, {"smiles": "CN1CCC(OC(c2cccc(OCCCCCN3CCN(C(=O)OC(C)(C)C)CC3)c2)c2nc3ccccc3[nH]2)CC1", "note": "(stereo not drawn) [Example 391, 4-(5-{3-[(1H-benzimidazol-2-yl)(1-methylpiperidin-4-yloxy)methyl]phenoxy}pentyl)piperazine-1-carboxylic acid tert-butyl ester]", "Ki or IC50 activity class": "< 1000"}, {"smiles": "CN1CCC(OC(c2cccc(C#CCCCNC(=N)N)c2)c2nc3ccccc3[nH]2)CC1", "note": "(stereo not drawn) [Example 358, N-(5-{3-[(1H-benzimidazol-2-yl)(1-methylpiperidin-4-yloxy)methyl]phenyl}pent-4-ynyl)guanidine]", "Ki or IC50 activity class": "< 30"}, {"smiles": "C#Cc1cccc(C(OC2CCN(C)CC2)c2nc3ccccc3[nH]2)c1", "note": "(stereo not drawn) [Example 195, 2-[(3-ethynylphenyl)(1-methylpiperidin-4-yloxy)methyl]-1H-benzimidazole]", "Ki or IC50 activity class": "< 300"}, {"smiles": "CN1CCC(OC(c2cccc(OCCCCn3nccn3)c2)c2nc3ccccc3s2)CC1", "note": "(stereo not drawn) [Example 315, 2-{(1-methylpiperidin-4-yloxy)[3-(4-[1,2,3]triazol-2-yl-butoxy)phenyl]methyl}benzothiazole]", "Ki or IC50 activity class": "< 1000"}, {"smiles": "CN1CCC(OC(c2cccc(C#CCCCn3ccnc3)c2)c2nc3ccccc3[nH]2)CC1", "note": "(stereo not drawn) [Example 409, 2-[[3-(5-imidazol-1-ylpent-1-ynyl)phenyl](1-methylpiperidin-4-yloxy)methyl]-1H-benzimidazole]", "Ki or IC50 activity class": "< 300"}, {"smiles": "CN1CCC(OC(c2cccc(C3CCN(C(=N)N)CC3)c2)c2nc3ccccc3[nH]2)CC1", "note": "(stereo not drawn) [Example 394, 4-{3-[(1H-benzimidazol-2-yl)(1-methylpiperidin-4-yloxy)methyl]phenyl}piperidine-1-carboxamidine]", "Ki or IC50 activity class": "< 1000"}, {"smiles": "CN1CCC(OC(c2ccc3c(c2)OCCO3)c2nc3ccccc3s2)CC1", "note": "(stereo not drawn) [Example 10, 2-[(2,3-dihydrobenzo[1,4]dioxin-6-yl)(1-methylpiperidin-4-yloxy)methyl]benzothiazole]", "Ki or IC50 activity class": "< 30"}, {"smiles": "CN1CCC(OC(c2cccc(C#CCCCCNC(=N)NC(=O)OC(C)(C)C)c2)c2nc3ccccc3[nH]2)CC1", "note": "(stereo not drawn) [Example 345, N-tert-butoxycarbonyl-N′-(6-{3-[(1H-benzimidazol-2-yl)(1-methylpiperidin-4-yloxy)methyl]phenyl}hex-5-ynyl)guanidine]", "Ki or IC50 activity class": "< 300"}, {"smiles": "CCCCCCc1cccc(C(NC2CCN(C)CC2)c2nc3ccccc3[nH]2)c1", "note": "(stereo not drawn) [Example 76, [(1H-benzimidazol-2-yl)(3-hexylphenyl)methyl](1-methylpiperidin-4-yl)amine]", "Ki or IC50 activity class": "< 300"}, {"smiles": "CN1CCC(OC(c2cccc(OCc3ccncc3)c2)c2nc3ccccc3s2)CC1", "note": "(stereo not drawn) [Example 265, 2-{(1-methylpiperidin-4-yloxy)[3-(pyridin-4-ylmethoxy)phenyl]methyl}benzothiazole]", "Ki or IC50 activity class": "< 300"}, {"smiles": "CN1CCC(OC(c2nc3ccccc3s2)c2ccc(F)cc2F)CC1", "note": "(stereo not drawn) [Example 12, 2-[(2,4-difluorophenyl)(1-methyl-piperidin-4-yloxy)methyl]-benzothiazole]", "Ki or IC50 activity class": "< 300"}, {"smiles": "CN1CCC(OC(c2cccc(SCCCCN)c2)c2nc3ccccc3[nH]2)CC1", "note": "(stereo not drawn) [Example 326, 4-{3-[(1H-benzimidazol-2-yl)(1-methylpiperidin-4-yloxy)methyl]phenylsulfanyl}butylamine]", "Ki or IC50 activity class": "< 30"}, {"smiles": "CN1CCC(OC(c2cccc(OCCN3CCN(C(=O)OC(C)(C)C)CC3)c2)c2nc3ccccc3[nH]2)CC1", "note": "(stereo not drawn) [Example 369, 4-(2-{3-[(1H-benzimidazol-2-yl)(1-methylpiperidin-4-yloxy)methyl]phenoxy}ethyl)piperazine-1-carboxylic acid tert-butyl ester]", "Ki or IC50 activity class": "< 1000"}, {"smiles": "CN1CCC(OC(c2cccc(C#CCCCn3ccnn3)c2)c2nc3ccccc3[nH]2)CC1", "note": "(stereo not drawn) [Example 417, 2-{(1-methylpiperidin-4-yloxy)[3-(5-[1,2,3]triazol-1-ylpent-1-ynyl)phenyl]methyl}-1H-benzimidazole]", "Ki or IC50 activity class": "< 1000"}, {"smiles": "CN1CCC(OC(c2cccc(OCCN3CCCCC3)c2)c2nc3ccccc3[nH]2)CC1", "note": "(stereo not drawn) [Example 356, 2-{(1-methylpiperidin-4-yloxy)[3-(2-piperidin-1-yl-ethoxy)phenyl]methyl}-1H-benzimidazole]", "Ki or IC50 activity class": "< 1000"}, {"smiles": "CN1CCC(OC(c2cccc(C=CCCCN)c2)c2nc3ccccc3[nH]2)CC1", "note": "(stereo not drawn) [Example 421, 5-{3-[(1H-benzimidazol-2-yl)(1-methylpiperidin-4-yloxy)methyl]phenyl}pent-4-enylamine]", "Ki or IC50 activity class": "< 30"}, {"smiles": "CN1CCC(OC(c2cccc(OCCCCN3CCOCC3)c2)c2nc3ccccc3s2)CC1", "note": "(stereo not drawn) [Example 322, 2-{(1-methylpiperidin-4-yloxy)[3-(4-morpholin-4-yl-butoxy)phenyl]methyl}benzothiazole]", "Ki or IC50 activity class": "< 1000"}, {"smiles": "CN1CCC(OC(c2cccc(C#CCCCCN)c2)c2nc3ccccc3s2)CC1", "note": "(stereo not drawn) [Example 319, 6-{3-[benzothiazol-2-yl(1-methylpiperidin-4-yloxy)methyl]phenyl}hex-5-ynylamine]", "Ki or IC50 activity class": "< 30"}, {"smiles": "CN1CCC(OC(c2cccc(-c3ccccc3)c2)c2nc3ccccc3s2)CC1", "note": "(stereo not drawn) [Example 53, 2-[biphenyl-3-yl(1-methylpiperidin-4-yloxy)methyl]benzothiazole]", "Ki or IC50 activity class": "< 300"}, {"smiles": "CN1CCC(OC(c2cccc(C#CCN)c2)c2nc3ccccc3s2)CC1", "note": "(stereo not drawn) [Example 296, 3-{3-[benzothiazol-2-yl(1-methylpiperidin-4-yloxy)methyl]phenyl}prop-2-ynylamine]", "Ki or IC50 activity class": "< 300"}, {"smiles": "CN1CCC(OC(c2cccc(-c3cccc(F)c3)c2)c2nc3ccccc3s2)CC1", "note": "(stereo not drawn) [Example 139, 2-[(3′-fluorobiphenyl-3-yl)(1-methylpiperidin-4-yloxy)methyl]benzothiazole]", "Ki or IC50 activity class": "< 30"}, {"smiles": "CN1CCC(OC(c2cccc(C=CCN)c2)c2nc3ccccc3[nH]2)CC1", "note": "(stereo not drawn) [Example 488]", "Ki or IC50 activity class": "< 1000"}, {"smiles": "CN1CCC(OC(c2cccc(SCCCF)c2)c2nc3ccccc3[nH]2)CC1", "note": "(stereo not drawn) [Example 508]", "Ki or IC50 activity class": "< 30"}]}]}
